Results from patent US10670605B2, “Cysteine reactive probes and uses thereof” (The Scripps Research Institute, priority 2015, dated 2020).
Blank lines part the entries; values can stand above or below the compound they belong to.

What was measured:
Experiment in all cases: Competitive isoTOP-ABPP, cell lysates;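 as to isoTOP-ABPP reactivity profile ratio, P09211 C48: Heavy/light ratio DMSO over fragment-treated so higher means more cysteine engagement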
Type in all cases: binding
[1] = molecular target: T1, UCHL3 C95 (P15374) (Homo sapiens, UniProt P15374); details: for R value (DMSO/fragment) / isoTOP-ABPP ratio, P15374_C95: 500 μM
T1 sequence (P15374 1-230): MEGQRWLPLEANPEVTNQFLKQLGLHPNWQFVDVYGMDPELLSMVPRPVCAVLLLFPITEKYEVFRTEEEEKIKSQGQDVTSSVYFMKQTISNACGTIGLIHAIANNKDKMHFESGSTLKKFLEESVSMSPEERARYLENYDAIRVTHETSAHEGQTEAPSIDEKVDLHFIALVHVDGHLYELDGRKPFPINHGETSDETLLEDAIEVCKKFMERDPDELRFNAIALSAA

[2] = molecular target: SAMHD1 C522 (Q9Y3Z3) (Homo sapiens, UniProt Q9Y3Z3)
Chain of SAMHD1 C522 (Q9Y3Z3) (Q9Y3Z3 whole entry, the tested form may be a part): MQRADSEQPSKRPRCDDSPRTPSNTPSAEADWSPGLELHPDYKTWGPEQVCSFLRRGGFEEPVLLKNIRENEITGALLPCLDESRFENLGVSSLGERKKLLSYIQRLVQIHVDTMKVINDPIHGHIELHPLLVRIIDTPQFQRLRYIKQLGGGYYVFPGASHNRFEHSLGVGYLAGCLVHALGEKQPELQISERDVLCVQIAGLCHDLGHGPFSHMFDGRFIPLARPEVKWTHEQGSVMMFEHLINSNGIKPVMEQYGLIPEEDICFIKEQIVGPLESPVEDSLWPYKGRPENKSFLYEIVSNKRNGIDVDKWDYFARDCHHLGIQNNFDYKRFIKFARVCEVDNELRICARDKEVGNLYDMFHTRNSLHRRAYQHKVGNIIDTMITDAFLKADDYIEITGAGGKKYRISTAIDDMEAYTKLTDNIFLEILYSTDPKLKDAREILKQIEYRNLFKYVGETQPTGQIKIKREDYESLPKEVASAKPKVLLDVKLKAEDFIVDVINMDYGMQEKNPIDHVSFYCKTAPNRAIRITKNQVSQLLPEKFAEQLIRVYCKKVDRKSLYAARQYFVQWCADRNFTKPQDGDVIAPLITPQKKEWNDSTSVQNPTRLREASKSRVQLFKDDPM

[3] = molecular target: GSTP1 C48 (P09211) (Homo sapiens, UniProt P09211); details: for R value (DMSO/fragment) / isoTOP-ABPP ratio, P09211_C48: 500 μM;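 as to isoTOP-ABPP reactivity profile ratio, P09211 C48: Heavy/light ratio DMSO over fragment-treated so higher means more cysteine engagement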
Chain of GSTP1 C48 (P09211) (P09211 whole entry, the tested form may be a part): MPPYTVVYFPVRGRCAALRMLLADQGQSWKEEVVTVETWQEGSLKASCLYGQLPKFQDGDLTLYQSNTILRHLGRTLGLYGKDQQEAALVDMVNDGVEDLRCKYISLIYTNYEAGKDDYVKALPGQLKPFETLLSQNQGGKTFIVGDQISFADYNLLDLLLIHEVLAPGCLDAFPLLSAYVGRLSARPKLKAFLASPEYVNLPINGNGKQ

[4] = molecular target: IDH1 C269 (O75874) (Homo sapiens, UniProt O75874); details: for R value (DMSO/fragment): 500 μM
Chain of IDH1 C269 (O75874) (O75874 whole entry, the tested form may be a part): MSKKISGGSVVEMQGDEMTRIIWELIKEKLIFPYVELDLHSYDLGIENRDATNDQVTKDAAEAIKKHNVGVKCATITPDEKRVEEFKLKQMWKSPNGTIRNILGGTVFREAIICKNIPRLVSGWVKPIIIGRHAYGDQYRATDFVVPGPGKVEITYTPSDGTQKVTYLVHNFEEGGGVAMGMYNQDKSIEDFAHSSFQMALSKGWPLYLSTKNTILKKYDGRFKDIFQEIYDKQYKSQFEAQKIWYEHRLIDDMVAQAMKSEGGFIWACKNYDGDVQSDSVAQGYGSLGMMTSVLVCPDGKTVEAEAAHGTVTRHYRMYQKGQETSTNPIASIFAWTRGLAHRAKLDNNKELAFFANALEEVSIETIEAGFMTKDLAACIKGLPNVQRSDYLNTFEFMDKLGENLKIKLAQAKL

[5] = molecular target: T2, UBE2S C118 (Q16763) (Homo sapiens, UniProt Q16763)
T2 sequence (Q16763 1-222): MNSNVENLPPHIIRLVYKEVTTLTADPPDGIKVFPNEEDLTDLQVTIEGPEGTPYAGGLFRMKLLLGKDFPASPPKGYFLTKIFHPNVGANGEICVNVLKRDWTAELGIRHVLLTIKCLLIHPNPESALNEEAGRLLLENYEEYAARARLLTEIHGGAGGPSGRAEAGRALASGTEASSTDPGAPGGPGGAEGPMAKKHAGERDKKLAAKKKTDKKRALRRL

[6] = molecular target: ZNF217 C286 (O75362) (Homo sapiens, UniProt O75362); details: 500 μM; for isoTOP-ABPP ratio O75362_C286: invitro, 231
Chain of ZNF217 C286 (O75362) (O75362 whole entry): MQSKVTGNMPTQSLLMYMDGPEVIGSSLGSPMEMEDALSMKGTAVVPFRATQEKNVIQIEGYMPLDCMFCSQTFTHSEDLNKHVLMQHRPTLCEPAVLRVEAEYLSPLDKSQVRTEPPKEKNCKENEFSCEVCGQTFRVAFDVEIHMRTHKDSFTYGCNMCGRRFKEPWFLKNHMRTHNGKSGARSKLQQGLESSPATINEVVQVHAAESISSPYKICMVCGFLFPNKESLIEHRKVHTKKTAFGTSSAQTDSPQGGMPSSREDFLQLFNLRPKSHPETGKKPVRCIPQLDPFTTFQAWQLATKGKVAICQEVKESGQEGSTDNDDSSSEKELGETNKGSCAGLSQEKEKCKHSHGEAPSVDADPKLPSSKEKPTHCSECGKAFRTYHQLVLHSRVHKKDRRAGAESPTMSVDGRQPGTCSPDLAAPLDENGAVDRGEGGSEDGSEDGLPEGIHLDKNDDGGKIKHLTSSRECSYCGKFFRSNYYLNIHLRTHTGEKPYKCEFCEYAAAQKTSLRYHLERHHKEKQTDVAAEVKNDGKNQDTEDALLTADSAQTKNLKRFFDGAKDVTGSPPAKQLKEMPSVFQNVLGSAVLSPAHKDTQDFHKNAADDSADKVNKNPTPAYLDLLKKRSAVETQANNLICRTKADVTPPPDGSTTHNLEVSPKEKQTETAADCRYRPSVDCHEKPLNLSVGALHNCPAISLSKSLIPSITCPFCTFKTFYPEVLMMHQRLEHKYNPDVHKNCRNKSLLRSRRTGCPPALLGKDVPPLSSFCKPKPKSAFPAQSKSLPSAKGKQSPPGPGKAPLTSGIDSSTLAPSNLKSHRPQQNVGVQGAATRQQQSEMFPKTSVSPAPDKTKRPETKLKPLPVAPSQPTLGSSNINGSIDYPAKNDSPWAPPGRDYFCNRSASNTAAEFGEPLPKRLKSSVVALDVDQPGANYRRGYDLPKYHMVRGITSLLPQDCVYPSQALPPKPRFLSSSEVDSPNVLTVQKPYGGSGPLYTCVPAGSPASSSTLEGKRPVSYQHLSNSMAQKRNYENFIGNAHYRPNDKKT

[7] = molecular target: GNB2L1 C182 (P63244) (Homo sapiens, UniProt P63244); details: 500 μM
[8] = molecular target: T3, AIP C122 (O00170) (Homo sapiens, UniProt O00170); details: 500 μM
T3 sequence (O00170 1-330): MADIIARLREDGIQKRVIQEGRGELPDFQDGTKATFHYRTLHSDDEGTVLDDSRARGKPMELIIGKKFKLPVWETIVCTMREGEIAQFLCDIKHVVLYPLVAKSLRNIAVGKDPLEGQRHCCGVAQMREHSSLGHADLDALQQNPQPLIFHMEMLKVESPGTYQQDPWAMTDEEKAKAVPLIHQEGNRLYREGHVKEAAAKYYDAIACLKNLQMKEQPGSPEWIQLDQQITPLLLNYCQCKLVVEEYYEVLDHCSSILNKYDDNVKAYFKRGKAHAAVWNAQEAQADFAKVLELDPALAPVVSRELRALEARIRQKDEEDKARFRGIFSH

[9] = molecular target: T4, USP22 C171 (Q9UPT9) (Homo sapiens, UniProt Q9UPT9); details: 500 μM, invitro, ramos
T4 sequence (Q9UPT9 1-525): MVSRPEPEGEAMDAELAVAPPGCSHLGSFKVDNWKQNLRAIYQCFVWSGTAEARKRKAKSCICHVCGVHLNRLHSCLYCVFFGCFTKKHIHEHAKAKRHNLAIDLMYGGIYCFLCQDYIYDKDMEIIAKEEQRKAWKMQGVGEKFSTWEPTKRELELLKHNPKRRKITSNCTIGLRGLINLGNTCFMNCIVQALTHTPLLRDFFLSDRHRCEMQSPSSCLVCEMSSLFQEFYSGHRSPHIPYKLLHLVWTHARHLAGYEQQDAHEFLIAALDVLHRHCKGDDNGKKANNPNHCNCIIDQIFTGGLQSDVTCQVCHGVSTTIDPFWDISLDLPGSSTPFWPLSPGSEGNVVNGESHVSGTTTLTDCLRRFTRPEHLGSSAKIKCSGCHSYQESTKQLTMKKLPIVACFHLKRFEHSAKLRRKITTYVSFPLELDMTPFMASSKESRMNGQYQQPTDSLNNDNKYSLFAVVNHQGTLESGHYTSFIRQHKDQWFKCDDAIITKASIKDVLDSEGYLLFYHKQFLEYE

- isoTOP-ABPP reactivity profile ratio, P15374_C95 ([1]; 500 μm, in-vitro_ramos_231): 0.8
- isoTOP-ABPP reactivity profile ratio, Q9Y3Z3_C522 ([2]; 500 μm, in-vitro_ramos_231): 0.8
- isoTOP-ABPP reactivity profile ratio, P09211_C48 ([3]; 500 μm, in-vitro_ramos_231): 0.9
- isoTOP-ABPP reactivity profile ratio, O75874_C269 ([4]; 500 μm, in-vitro_ramos_231): 0.8
- isoTOP-ABPP reactivity profile ratio, Q16763_C118 ([5]; 500 μm, in-vitro_ramos_231): 0.8
Compound: O=C(CCl)NC1C(O)OC(CO)C(O)C1O (mixture of isomers) [compound 44]

- R value (DMSO/fragment) ([1]; in vitro, MDA-MB-231): 1.7
- R value (DMSO/fragment) ([1]; invitro, ramos): 1.4
- R value (DMSO/fragment) ([6]; in vitro, MDA-MB-231): 1.4
- R value (DMSO/fragment) ([2]; 500 μM, in vitro, MDA-MB-231): 2.6
- R value (DMSO/fragment) ([7]; in vitro, MDA-MB-231): 20.0
- R value (DMSO/fragment) ([7]; invitro, ramos): 4.7
- R value (DMSO/fragment) ([3]; in vitro, MDA-MB-231): 2.9
- R value (DMSO/fragment) ([3]; invitro, ramos): 1.7
- R value (DMSO/fragment) ([8]; in vitro, MDA-MB-231): 7.0
- R value (DMSO/fragment) ([8]; invitro, ramos): 3.1
- R value (DMSO/fragment) ([4]; in vitro, MDA-MB-231): 20.0
- R value (DMSO/fragment) ([4]; invitro, ramos): 1.0
- R value (DMSO/fragment) ([5]; 500 μM, in vitro, MDA-MB-231): 1.3
- R value (DMSO/fragment) ([5]; 500 μM, invitro, ramos): 1.5
Compound: O=C(CCl)Nc1cc(C(F)(F)F)cc(C(F)(F)F)c1 [compound 3]

- isoTOP-ABPP ratio, P15374_C95 ([1]; invitro, 231): 1.1
- isoTOP-ABPP ratio O75362_C286 [6]: 0.9
- isoTOP-ABPP ratio, P63244_C182 ([7]; invitro, 231): 1.5
- isoTOP-ABPP ratio, P09211_C48 ([3]; invitro, 231): 1.2
Compound: CNS(=O)(=O)C=Cc1ccc2c(ccn2Cc2ccccc2)c1 [compound 6]

- isoTOP-ABPP ratio, P15374_C95 ([1]; invitro, ramos): 0.5
- isoTOP-ABPP ratio O75362_C286 [6]: 1.0
- isoTOP-ABPP ratio, P63244_C182 ([7]; invitro, 231): 0.9
- isoTOP-ABPP ratio, P63244_C182 ([7]; invitro, ramos): 0.8
- isoTOP-ABPP ratio, Q9UPT9_C171 [9]: 4.1
- isoTOP-ABPP ratio, P09211_C48 ([3]; invitro, 231): 2.9
- isoTOP-ABPP ratio, P09211_C48 ([3]; invitro, ramos): 1.1
- isoTOP-ABPP ratio, O00170_C122 ([8]; invitro, ramos): 1.3
- isoTOP-ABPP ratio, Q16763_C118 ([5]; 500 μM, invitro, ramos): 0.6
Compound: O=C(CCl)NC(=O)NC12CC3CC(CC(C3)C1)C2 [compound 12]
